{"source": "patent US10654834B2", "about": "(Venenum Biodesign, LLC, priority 2016, dated 2020)", "type_in_all_cases": "in vivo, mouse", "key": {"GLP-1 [1]": {"system": "GLP-1", "experiment": "GLP-1 levels after chronic dosing (5 days) in DIO mice", "details": "30 mg/kg + sitagliptin 10 mg/kg p.o., after dose 2 and dose 10 (5 days), versus sitagliptin alone", "experimental": "GLP-1 Levels after Chronic Dosing of Compounds\nThe chronic dosing of compounds of the present invention was evaluated to determine if they produce sustained GLP-1 levels.\nMale DIO mice were received at 12 weeks of age (from Taconic), and were single-housed at the testing facility and acclimated for at least 2 weeks. The mice were provided a high fat diet [Research Diet D12492 (60% Fat kcal)] while in the testing facility. Before the study initiation, the animals were randomized into 18 experimental groups by body weight. The first 10 groups were administered with sitagliptin alone at 10 mg/kg or sitagliptin (10 mg/kg)+Compound 268 at 30 mg/kg by oral gavage and then again 14 hours later (except for one sitagliptin treated and one sitagliptin+Compound 268 treated groups that were euthanized 14° hours after the first dose). The remaining mice were euthanized at 3, 6, or 9 hours after the second dose to collect blood for GLP-1 measurements and bile weights. The remaining 8 groups were administered by oral gavage with sitagliptin alone at 10 mg/kg or sitagliptin (10 mg/kg)+Compound 268 at 30 mg/kg every 10 or 14 hours for 5 days. […] The active form of GLP-1 [GLP-1 (7-36) amide] was analyzed using Meso Scale Discovery System according to the manufacturer's instruction. […]"}, "[2]": {"experiment": "Bile weight after 6 weeks of dosing in DIO mice", "details": "about 6 h after final dose", "text": "(§1) In the next series of studies (Examples 93-99), Male DIO mice were received at 12 weeks of age (from Taconic), and were single-housed at the testing facility and acclimated for at least 2 weeks. The mice were provided a high fat diet [Research Diet D12492 (60% Fat kcal)] while in the testing facility. Before the study initiation, the animals were randomized into 5 experimental groups by body weight. The vehicle group contained only 0.5% carboxymethylcellulose (medium viscosity)+0.25% Tween-80. The second group contained 10 mg/kg of the DPP-IV inhibitor Sitagliptin while the third group contained 30 mg/kg Compound 268. The fourth group contained the combination of 10 mg/kg Sitagliptin and 30 mg/kg Compound 268. The fifth group was the positive control for weight loss, Rimonabant. All mice were dosed BID at approximately 6:00 am and again at approximately 4:00 pm. The positive control rimonabant was administered at a dose of 10 mg/kg in the afternoon and the morning dosing was vehicle (no compound).\nNo Bile Weight Increase after 6 Weeks of Dosing Compounds\nCompounds of the present invention were dosed for multiple weeks and were evaluated to determine if they lead to an increase in bile weight.\nIn this example, the protocol from Example 93 was utilized. […]"}, "[3]": {"experiment": "Comparison of PK in DIO mice and lean mice", "details": "for Cmax / AUC(0-t) / Tmax: mouse, plasma; for AUC(0-t): read-out: AUC (0→4 h)", "experimental": "Comparison of PK in DIO Mice and Lean Mice\nThe PK characteristics of Compound 268 were examined in non-fasted lean C57BL/6N and DIO mice (Taconic). Compound 268 was orally administered to both groups at 10 mg/kg by oral gavage and plasma concentration of the compound was determined as described in Example 81.\nIn addition, PK parameters were determined for Compound 268 (i.e., Cmax, Tmax, and AUC) following oral administration in four groups of mice: (i) fasted lean mice; (ii) non-fasted lean mice; (iii) non-fasted DIO mice; and (iv) lean mice receiving ABT.\nThe ABT treatment confirms that the low Cmax value of Compound 268 is attributed to […]."}, "[4]": {"experiment": "Plasma concentrations after chronic dosing (5 days) in DIO mice", "details": "after second and tenth dose, 0-12 h", "experimental": "Plasma Concentrations after Chronic Dosing of Compound\nIn the study, the plasma level of compounds of the present invention (i.e., Compound 268) was monitored at day 1 and day 5. The same animal protocol as described in Examples 87 and 88 was utilized.\nFIG. 14 depicts the plasma concentration of Compound 268 at 0, 3, 6, 9, and 12 hours after the second and at 3, 6, 9, and 12 hours after the tenth dose. […] No significant increases were observed over time."}, "GLP-1 [5]": {"system": "GLP-1", "experiment": "GLP-1 levels after 6 weeks of dosing in DIO mice", "details": "30 mg/kg + sitagliptin 10 mg/kg BID, 6 h after final dose, versus sitagliptin alone", "text": "as §1, with “compound). […]” for “compound).”\nCompounds of the present invention were dosed for multiple weeks and were evaluated to determine if they produce sustained GLP-1 levels.\nIn this example, the protocol from Example 93 was utilized. […] The active form of GLP-1 [GLP-1 (7-36) amide] was analyzed using Meso Scale Discovery System according to the manufacturer's directions (item number K150HYC). […]"}, "[6]": {"details": "C57BL/6N, po, 10 mg/kg, Non-fasted DIO mice, oral (Table 58)"}, "[7]": {"details": "C57BL/6N, po, 10 mg/kg, Non-fasted Lean mice, oral (Table 58)"}, "[8]": {"details": "po, 10 mg/kg, Fasted Lean mice, oral (Table 58)"}, "[9]": {"details": "po, 10 mg/kg, lean mice receiving ABT (150 mg/kg), oral (Table 58)"}}, "note": "Where two headings read alike, the source gives them in different places."}
{"smiles": "N#Cc1ccc(CCNC(=O)[C@@H]2CCN2c2cc(N3CCC(CCNC(=O)NCCC(=O)O)CC3)nc(C(F)(F)F)n2)cc1", "note": "[Compound 268, (S)-3-(3-(2-(1-(6-(2-((4-cyanophenethyl)carbamoyl)azetidin-1-yl)-2-(trifluoromethyl)pyrimidin-4-yl)piperidin-4-yl)ethyl)ureido)propanoic acid]", "values": [{"measurement": "plasma GLP-1 level after chronic dosing", "setting": "GLP-1 [1]", "value": "significantly increased level of GLP-1"}, {"measurement": "bile weight / gallbladder size after 6 weeks of dosing", "setting": "[2]", "value": "does not show an increase in size"}, {"measurement": "Cmax", "setting": "[3]; C57BL/6N, po, 10 mg/kg, DIO mice, Non-fasted PK, p.o. (Table 57)", "value": 0.6, "unit": "nM"}, {"measurement": "Cmax", "setting": "[3]; C57BL/6N, po, 10 mg/kg, Lean mice, Non-fasted PK, p.o. (Table 57)", "value": 2.1, "unit": "nM"}, {"measurement": "Cmax", "setting": "[3]; [6]", "value": 0.57, "unit": "nM"}, {"measurement": "AUC(0-t)", "setting": "[3]; [6]", "value": 0.76, "unit": "ng·h/mL"}, {"measurement": "Cmax", "setting": "[3]; [7]", "value": 2.1, "unit": "nM"}, {"measurement": "AUC(0-t)", "setting": "[3]; [7]", "value": 2.9, "unit": "ng·h/mL"}, {"measurement": "Tmax", "setting": "[3]; C57BL/6N, po, DIO mice, Non-fasted PK, 10 mg/kg, p.o. (Table 57)", "value": 60, "unit": "min"}, {"measurement": "Tmax", "setting": "[3]; 10 mg/kg, Fasted Lean mice, oral (Table 58)", "value": 15, "unit": "min"}, {"measurement": "Cmax", "setting": "[3]; [8]", "value": 12, "unit": "nM"}, {"measurement": "AUC(0-t)", "setting": "[3]; [8]", "value": 18, "unit": "ng·h/mL"}, {"measurement": "Cmax", "setting": "[3]; [9]", "value": 4.2, "unit": "nM"}, {"measurement": "AUC(0-t)", "setting": "[3]; [9]", "value": 5.1, "unit": "ng·h/mL"}, {"measurement": "Tmax", "setting": "[3]; lean mice receiving ABT (150 mg/kg), oral (Table 58)", "value": 30, "unit": "min"}, {"measurement": "Cmax profile in fasted lean, non-fasted lean, non-fasted DIO mice", "setting": "[3]; oral administration", "value": "low Cmax profile"}, {"measurement": "plasma level of compound after chronic dosing", "setting": "[4]", "value": "maintained at a low concentration level"}, {"measurement": "plasma GLP-1 level after 6 weeks of dosing", "setting": "GLP-1 [5]", "value": "significantly increased level of GLP-1"}]}
